Series [1] has as its system non-malignant bone marrow cells. Nature of the series: Colony assay of non-malignant bone marrow cells. The conditions noted are these: day 10.
Method: Bone-marrow MNCs were isolated as indicated above. Bone marrow samples were obtained from patients in CR after NHL or AML treatment or without evidence of any malignant bone marrow infiltration. 1×10^5 cells were plated in 1.1 ml Methocult™ (GF H4534) “Complete” Methylcellulose Medium with recombinant cytokines (StemCell Technologies, Vancouver, Canada) and incubated for 10 days at 37° C. in duplicate. Colony formation was counted on day 10.
A further series has as its system FLT3-WT cells. Nature of the series: Apoptosis assay by cell cycle analysis (sub-G1 fraction) in FLT3-WT cells. The format is cell-based. The conditions noted are these: up to 10 μM, 48 h incubation.
The next series has as its system STAT5, ERK and AKT. The series can be described thus: Western blotting of downstream kinase targets. The format is cell-based. As for the experimental part: 2×10^6 cells were incubated in the presence of various inhibitor concentrations alone and in combination for 1 hour at 37° C. Preparation of cellular lysates was performed as described previously (Kindler, T., Breitenbuecher, F., Kasper, S., Estey, E., Giles, F., Feldman, E., Ehninger, G., Schiller, G., Klimek, V., Nimer, S. D., Gratwohl, A., Choudhary, C. R., Mueller-Tidow, C., Serve, H., Gschaidmeier, H., Cohen, P. S., Huber, C. & Fischer, T. (2005) Identification of a novel activating mutation (Y842C) within the activation loop of FLT3 in patients with acute myeloid leukemia (AML). Blood, 105, 335-340). Protein lysates were subjected to SDS polyacrylamid gel electrophoresis (SDS-PAGE) and blotted onto nitrocellulose membrane (Amersham, Freiburg, Germany) as previously described (Kindler, et al 2003). The following antibodies were used: anti-phospho-FLT3, anti-phospho-STAT5 (pTyr694/699), anti-phospho AKT (pSer473), anti-phospho ERK (pThr202/pTyr204) (all Cell Signaling Technology™, Frankfurt, Germany), anti-FLT3, anti-AKT and anti-STAT5 (Santa Cruz, Heidelberg, Germany), and anti-β-Actin (ICN). Densitometric analysis was performed using the program Gel-Pro Analyzer®.
A general note: In western blotting, separated proteins are transferred to a membrane and probed.

Series [2] has as its system murine 32D-FLT3-ITD cells. Nature of the series: Apoptosis assay by cell cycle analysis (sub-G1 fraction) in 32D-FLT3-ITD cells. The following applies: 48 h incubation. In kind it is cell-based. An excerpt: A human FLT3-ITD construct, subcloned into the pAL expression vector under control of the 5′ long terminal repeat (LTR) of the Moloney murine sarcoma virus (MoMSV) and the plasmid pMAM/BSD were used as previously described (Mizuki, M., Schwable, J., Steur, C., Choudhary, C., Agrawal, S., Sargin, B., Steffen, B., Matsumura, I., Kanakura, Y., Bohmer, F. D., Muller-Tidow, C., Berdel, W. E. & Serve, H. (2003) Suppression of myeloid transcription factors and induction of STAT response genes by AML-specific FLT3 mutations. Blood, 101, 3164-3173). The N676K point mutation was introduced into this FLT3-ITD construct (Medigenomix Martinsried, Germany). […]
The induction of apoptosis in murine 32D-FLT3-ITD cells measured by sub-G1-fraction in cell cycle analysis upon 48 h incubation with two 3-(indolyl)- and 3-(azaindolyl)-4-phenylmaleimide derivatives (DHF125 and DHF150) was evaluated.

In another series the test system is FLT3-ITD-positive cells. The series can be described thus: Drug combination with chemotherapy, Chou-Talalay plot (CompuSyn). The format is cell-based. As for the experimental part: The chemotherapeutic agents cytarabine and daunorubicine were dissolved and diluted in aqua dest. Equivalent doses of DMSO were added when used for combination treatment.
For definition of synergism and/or antagonism in drug combinations we used the CompuSyn™ software (Chou, T C and Martin, N; ComboSyn, Inc. Paramus, N. J., USA) as previously described (Chou, T. C. (2006) Theoretical basis, experimental design, and computerized simulation of synergism and antagonism in drug combination studies. Pharmacol Rev, 58, 621-681).

In series [3] the test system is primary AML blasts harboring the FLT3-ITD mutation. Nature of the series: Apoptosis (sub-G1 fraction, FACS) in primary AML blasts. In kind it is cell-based, human. The following applies: primary AML blasts with FLT3-ITD mutation, 72 h incubation. As for the experimental part:
Transfected murine 32D cells (1×10^5 cells/well) were incubated in 2 ml RPMI medium supplemented with 10% FCS with different inhibitor concentrations for 48 hours at 37° C. Primary human cells (2×10^5 cells/well) were incubated for 72 hours at 37° C. After incubation, cells were washed with ice cold PBS, pelleted and mixed with 300 μl of propidium-iodide-buffer (containing 50 μg/ml PI in 0.1% sodium citrate plus 0.1% Triton X 100, Sigma) for 30 minutes at 4° C. Cell cycle analysis was performed as described previously (Nicoletti, I., Migliorati, G., Pagliacci, M. C., Grignani, F. & Riccardi, C. (1991) A rapid and simple method for measuring thymocyte apoptosis by propidium iodide staining and flow cytometry. J Immunol Methods, 139, 271-279) using a FACSCanto™ flow cytometer (BD Biosciences, Heidelberg, Germany).
BM- and PB-samples with heparin as anticoagulant were obtained from AML patients or donors with no evidence of malignant bone marrow infiltration after informed consent in a study approved by the local ethics committee. Mononuclear cells (MNC) were isolated immediately by means of Ficoll-Hypaque (Seromed, Berlin, Germany) density gradient centrifugation. […]
Primary AML blasts at primary diagnosis were incubated for 72 h with both 3-(indolyl)- and 3-(azaindolyl)-4-phenylmaleimide derivatives. Induction of apoptosis was measured by sub-G1-fraction in FACS analysis. […]

The next series concerns the target T1, FLT3-kinase (Homo sapiens, UniProt P36888).
T1 sequence (P36888 27-993): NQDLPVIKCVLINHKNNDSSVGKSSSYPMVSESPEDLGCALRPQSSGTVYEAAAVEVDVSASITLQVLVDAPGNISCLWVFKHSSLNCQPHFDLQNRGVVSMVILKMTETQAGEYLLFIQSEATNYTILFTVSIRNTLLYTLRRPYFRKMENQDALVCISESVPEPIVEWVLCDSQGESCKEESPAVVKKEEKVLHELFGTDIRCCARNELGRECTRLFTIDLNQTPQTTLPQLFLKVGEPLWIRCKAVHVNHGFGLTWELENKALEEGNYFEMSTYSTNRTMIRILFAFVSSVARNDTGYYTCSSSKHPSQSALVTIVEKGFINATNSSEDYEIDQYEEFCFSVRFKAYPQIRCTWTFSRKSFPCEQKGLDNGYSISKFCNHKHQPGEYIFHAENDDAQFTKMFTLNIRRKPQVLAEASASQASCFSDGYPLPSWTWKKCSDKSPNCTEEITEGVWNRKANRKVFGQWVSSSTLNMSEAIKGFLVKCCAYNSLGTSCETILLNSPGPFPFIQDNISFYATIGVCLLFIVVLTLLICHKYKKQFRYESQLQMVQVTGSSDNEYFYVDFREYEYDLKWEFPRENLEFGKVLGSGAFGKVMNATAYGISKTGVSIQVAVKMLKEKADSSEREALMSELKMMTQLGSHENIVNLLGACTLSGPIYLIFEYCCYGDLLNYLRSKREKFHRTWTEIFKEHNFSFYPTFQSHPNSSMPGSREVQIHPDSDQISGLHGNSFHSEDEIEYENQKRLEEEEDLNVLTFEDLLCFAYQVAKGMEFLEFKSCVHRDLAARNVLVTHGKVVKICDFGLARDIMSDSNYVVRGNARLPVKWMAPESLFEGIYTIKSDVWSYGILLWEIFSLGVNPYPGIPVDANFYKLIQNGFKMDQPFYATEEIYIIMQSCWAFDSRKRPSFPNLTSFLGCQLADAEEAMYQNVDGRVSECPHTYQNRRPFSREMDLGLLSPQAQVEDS
Nature of the series: FLT3-kinase assay at two ATP concentrations. The format is biochemical.

For another series, the system named is FLT3. The series can be described thus: Immunoprecipitation of FLT3 (anti-FLT3 and anti-P-Tyr). In kind it is cell-based.

As to `COc1cc(C2=C(c3c[nH]c4ncccc34)C(=O)NC2=O)cc(OC)c1OC` [DHF150, 3-(7-Azaindol-3-yl)-4-(3,4,5-trimethoxyphenyl)-1H-pyrrole-2,5-dione], the colony formation result in series [1] (10 μM) is recorded as “reduced to a minimum”. Also, the “reduction in colony formation” value in series [1] (up to 5 μM) was “no significant reduction”. Moreover, the induction of apoptosis entry with FLT3-WT cells is on record as “No significant induction of apoptosis”. Besides, the “phosphorylation of downstream-targets STAT5, ERK and AKT” value in the series on STAT5, ERK and AKT is on record as “dephosphorylation”. Besides, the “sub-G1-cell fraction (induction of apoptosis)” value in series [2] was “statistically very significant dose-dependent increase”. Moreover, in the series with FLT3-ITD-positive cells, the “effect in combination with cytarabine” value is given as “synergistic effects” and the “effect in combination with daunorubicine” value is on record as “synergistic effects”. In series [3], the “induction of apoptosis, percentage of apoptotic cells on top of ground apoptosis” value is listed as 17-28%. The “inhibition of FLT3-kinase” value against FLT3-kinase is reported as “ATP competitive inhibition”. The “phosphorylation of FLT3” value in the series with FLT3 is reported as “dephosphorylation”.
As for `COc1cc(C2=C(c3c[nH]c4ccccc34)C(=O)NC2=O)cc(OC)c1OC` [DHF125, 3-(Indole-3-yl)-4-(3,4,5-trimethoxyphenyl)-1H-pyrrole-2,5-dione], in the series on FLT3-WT cells, the induction of apoptosis entry is “No significant induction of apoptosis”. Besides, in the series on STAT5, ERK and AKT, the “phosphorylation of downstream-targets STAT5, ERK and AKT” value is reported as “dephosphorylation”. The “sub-G1-cell fraction (induction of apoptosis)” value in series [2] was “statistically very significant dose-dependent increase”. In the series with FLT3-ITD-positive cells, the “effect in combination with cytarabine” value was “synergistic effects” and the “effect in combination with daunorubicine” value is reported as “synergistic effects”. For the same compound, the “induction of apoptosis, percentage of apoptotic cells on top of ground apoptosis” value in series [3] is listed as 10-17%. Besides, the “inhibition of FLT3-kinase” value against FLT3-kinase was “ATP competitive inhibition”. In addition, in the series with FLT3, the “phosphorylation of FLT3” value was “dephosphorylation”.

The values are drawn from US8841319B2, “Use of 3-(indolyl)- or 3-(azaindolyl)-4-arylmaleimide derivatives in leukemia management” (Johannes Gutenberg-Universitat Mainz, priority 2007, dated 2014).
